{"source": "patent US20250222024A1", "about": "“METHOD AND COMPOSITION FOR TREATING CORONA VIRUS, INFLUENZA, AND ACUTE RESPIRATORY DISTRESS SYNDROME” (ReversPAH LLC, priority 2020, published 2025)", "origin": "cited, not measured here", "key": {"[1]": {"system": "carrageenan-induced lung injury", "conditions": "for TNF-alpha levels in the lung / nitrite and nitrate levels (stable NO metabolites) in pleural exudates: 4 hours after carrageenan administration, versus CAR group, n=8 mice; for TNF-alpha levels in the lung: FIG. 10(a); for nitrite and nitrate levels (stable NO metabolites) in pleural exudates: FIG. 10(b)"}, "[2]": {"system": "Sugen/hypoxia-induced PAH", "conditions": "rat"}, "[3]": {"system": "monocrotaline-induced pulmonary hypertension", "conditions": "through the bone morphogenetic protein signaling pathway"}, "[4]": {"system": "silica-induced lung inflammation and fibrosis", "conditions": "by inhibiting T-helper 17 cell (TH 17)"}, "SARS-CoV-2": {"system": "SARS-CoV-2", "conditions": "in vitro"}}, "data": [{"molecule": "CCN(CC)C(=O)N1CCN(C)CC1", "note": "[DEC, Diethylcarbamazine]", "values": [{"measurement": "TNF-alpha levels in the lung", "setting": "[1]", "result": "significantly reduced the TNF-alpha levels"}, {"measurement": "nitrite and nitrate levels (stable NO metabolites) in pleural exudates", "setting": "[1]", "result": "significantly reduced the nitrite and nitrate level"}, {"measurement": "neutrophil infiltration into the lung (myeloperoxidase marker)", "setting": "[1]; mouse acute lung injury model, DEC pretreatment, FIG. 9", "result": "significantly inhibited neutrophil infiltration"}]}, {"molecule": "COc1ccc2c(c1)c(CC(=O)O)c(C)n2C(=O)c1ccc(Cl)cc1", "note": "[INDO]", "values": [{"measurement": "TNF-alpha levels in the lung", "setting": "[1]", "result": "did not reduce the TNF-alpha level"}, {"measurement": "nitrite and nitrate levels (stable NO metabolites) in pleural exudates", "setting": "[1]", "result": "significantly reduced the nitrite and nitrate level"}]}, {"molecule": "S=C(S)N1CCCC1", "note": "[pyrrolidine dithiocarbamate]", "values": [{"measurement": "reversal of established angio-obliterative PAH", "setting": "[2]", "result": "reverse established angio-obliterative PAH"}]}, {"molecule": "O=C(O)[C@H]1O[C@@H](Oc2cc3oc(-c4ccccc4)cc(=O)c3c(O)c2O)[C@H](O)[C@@H](O)[C@@H]1O", "note": "[Baicalin]", "values": [{"measurement": "monocrotaline-induced pulmonary hypertension", "setting": "[3]", "result": "attenuate monocrotaline-induced pulmonary hypertension"}, {"measurement": "silica-induced lung inflammation and fibrosis", "setting": "[4]", "result": "alleviate silica-induced lung inflammation and fibrosis"}]}, {"molecule": "Ivermectin", "values": [{"measurement": "replication of SARS-CoV-2", "setting": "SARS-CoV-2", "result": "inhibits the replication of SARS-CoV-2 in vitro"}]}]}
